Data as given in ChEMBL document CHEMBL4311942, “Design of Trp-Rich Dodecapeptides with Broad-Spectrum Antimicrobial Potency and Membrane-Disruptive Mechanism” (J Med Chem, 2019).
Converted amounts (≈) assume the structure as drawn. Where a SMILES comes first, the peptide text is derived from it.

Legend:
Staphylococcus aureus [1] = assay: Antibacterial activity against Staphylococcus aureus ATCC 29213 incubated for 18 to 24 hrs by broth microdilution method; format: functional
[2] = Cytotoxicity against mouse RAW264.7 cells assessed as cell survival at <= 32 uM after 24 hrs by MTT assay relative to control; format: cell-based; details: RAW264.7 cells, up to 32 µM, read-out: Activity
Erythrocyte = assay: Haemolytic activity in human erythrocytes assessed as lowest concentration causing 5% hemolysis after 1 hr; format: ADME, cell-based
[3] = test system: Staphylococcus epidermidis; assay: Antibacterial activity against Staphylococcus epidermidis ATCC 12228 incubated for 18 to 24 hrs by broth microdilution method; format: functional
Salmonella typhimurium = assay: Antibacterial activity against Salmonella enterica serovar typhimurium C77-31 incubated for 18 to 24 hrs by broth microdilution method; format: functional, Salmonella enterica subsp. enterica serovar Typhimurium
Escherichia coli [4] = assay: Antibacterial activity against Escherichia coli UB1005 incubated for 18 to 24 hrs by broth microdilution method; format: functional
Escherichia coli [5] = assay: Antibacterial activity against Escherichia coli ATCC 25922 incubated for 18 to 24 hrs by broth microdilution method; format: functional
[6] = Therapeutic index, ratio of MHC for human RBC to geometric mean of peptide MIC for Escherichia coli ATCC 25922; format: toxicity; details: pooled result: one value given for 6 cell lines, strains, targets or settings, read-out: TI
Staphylococcus aureus [7] = assay: Antibacterial activity against Staphylococcus aureus ATCC 25923 incubated for 18 to 24 hrs by broth microdilution method; format: functional

SMILES	MIC (Staphylococcus aureus [1])	MIC [3]	MIC (Salmonella typhimurium)	MIC (Escherichia coli [4])	MIC (Escherichia coli [5])	MIC (Staphylococcus aureus [7])	viability at 24 h [2]	MHC (Erythrocyte)	selectivity ratio [6]
CC(C)C[C@H](NC(=O)[C@H](CCCNC(=N)N)NC(=O)[C@H](Cc1c[nH]c2ccccc12)NC(=O)[C@H](CCCNC(=N)N)NC(=O)[C@@H](NC(=O)[C@H](CCCCN)NC(=O)[C@H](Cc1c[nH]c2ccccc12)NC(=O)[C@H](CCCNC(=N)N)NC(=O)[C@H](CC(C)C)NC(=O)[C@H](CCCNC(=N)N)NC(=O)[C@@H](N)CCCNC(=N)N)[C@@H](C)O)C(=O)N[C@@H](CCCCN)C(N)=O (H-RRLRWKTRWRLK-NH2)	16 µM (≈ 28.1 µg/mL)	16 µM (≈ 28.1 µg/mL)	32 µM (≈ 56.1 µg/mL)	4 µM (≈ 7.02 µg/mL)	16 µM (≈ 28.1 µg/mL)	16 µM (≈ 28.1 µg/mL)	≥ 70%	> 128 µM	18
CC(C)C[C@H](NC(=O)[C@H](CCCNC(=N)N)NC(=O)[C@H](CCCCN)NC(=O)[C@H](Cc1c[nH]c2ccccc12)NC(=O)[C@@H](NC(=O)[C@H](CCCCN)NC(=O)[C@H](CCCCN)NC(=O)[C@H](Cc1c[nH]c2ccccc12)NC(=O)[C@H](CC(C)C)NC(=O)[C@H](CCCNC(=N)N)NC(=O)[C@@H](N)CCCNC(=N)N)[C@@H](C)O)C(=O)N[C@@H](Cc1c[nH]c2ccccc12)C(N)=O (H-RRLWKKTWKRLW-NH2)	8 µM (≈ 14 µg/mL)	8 µM (≈ 14 µg/mL)	8 µM (≈ 14 µg/mL)	4 µM (≈ 7.02 µg/mL)	4 µM (≈ 7.02 µg/mL)	16 µM (≈ 28.1 µg/mL)	≥ 70%	> 128 µM	35.9
CC(C)C[C@H](NC(=O)[C@H](CCCNC(=N)N)NC(=O)[C@H](CCCCN)NC(=O)[C@H](CCCNC(=N)N)NC(=O)[C@@H](NC(=O)[C@H](Cc1c[nH]c2ccccc12)NC(=O)[C@H](CCCCN)NC(=O)[C@H](CCCNC(=N)N)NC(=O)[C@H](CC(C)C)NC(=O)[C@H](Cc1c[nH]c2ccccc12)NC(=O)[C@@H](N)CCCNC(=N)N)[C@@H](C)O)C(=O)N[C@@H](CCCCN)C(N)=O (H-RWLRKWTRKRLK-NH2)	64 µM (≈ 110 µg/mL)	16 µM (≈ 27.6 µg/mL)	64 µM (≈ 110 µg/mL)	16 µM (≈ 27.6 µg/mL)	16 µM (≈ 27.6 µg/mL)	32 µM (≈ 55.2 µg/mL)	≥ 70%	> 128 µM	8.98

Further lines, with some results ahead:

MIC (Staphylococcus aureus [1])	MIC [3]	MIC (Salmonella typhimurium)	MIC (Escherichia coli [4])	MIC (Escherichia coli [5])	MIC (Staphylococcus aureus [7])	SMILES	viability at 24 h [2]	MHC (Erythrocyte)	selectivity ratio [6]
32 µM (≈ 50.1 µg/mL)	64 µM (≈ 100 µg/mL)	16 µM (≈ 25 µg/mL)	4 µM (≈ 6.26 µg/mL)	4 µM (≈ 6.26 µg/mL)	32 µM (≈ 50.1 µg/mL)	CC(C)C[C@H](NC(=O)[C@H](CCCNC(=N)N)NC(=O)[C@H](CC(C)C)NC(=O)[C@H](CCCNC(=N)N)NC(=O)[C@@H](NC(=O)[C@H](CCCCN)NC(=O)[C@H](CC(C)C)NC(=O)[C@H](CCCNC(=N)N)NC(=O)[C@H](CC(C)C)NC(=O)[C@H](CCCNC(=N)N)NC(=O)[C@@H](N)CC(C)C)[C@@H](C)O)C(=O)N[C@@H](CCCCN)C(N)=O (H-LRLRLKTRLRLK-NH2)	≥ 70%	> 128 µM	16
64 µM (≈ 110 µg/mL)	64 µM (≈ 110 µg/mL)	64 µM (≈ 110 µg/mL)	32 µM (≈ 55.2 µg/mL)	16 µM (≈ 27.6 µg/mL)	> 128 µM	CC(C)C[C@H](NC(=O)[C@H](CCCNC(=N)N)NC(=O)[C@H](CCCCN)NC(=O)[C@H](Cc1c[nH]c2ccccc12)NC(=O)[C@@H](NC(=O)[C@H](CCCCN)NC(=O)[C@H](CCCCN)NC(=O)[C@H](CCCNC(=N)N)NC(=O)[C@H](CC(C)C)NC(=O)[C@H](CCCNC(=N)N)NC(=O)[C@@H](N)CCCNC(=N)N)[C@@H](C)O)C(=O)N[C@@H](Cc1c[nH]c2ccccc12)C(N)=O (H-RRLRKKTWKRLW-NH2)	≥ 70%	> 128 µM	4.49
4 µM (≈ 7.25 µg/mL)	8 µM (≈ 14.5 µg/mL)	8 µM (≈ 14.5 µg/mL)	4 µM (≈ 7.25 µg/mL)	4 µM (≈ 7.25 µg/mL)	8 µM (≈ 14.5 µg/mL)	CC(C)C[C@H](NC(=O)[C@H](CCCNC(=N)N)NC(=O)[C@H](Cc1c[nH]c2ccccc12)NC(=O)[C@H](CCCNC(=N)N)NC(=O)[C@@H](NC(=O)[C@H](Cc1c[nH]c2ccccc12)NC(=O)[C@H](Cc1c[nH]c2ccccc12)NC(=O)[C@H](CCCNC(=N)N)NC(=O)[C@H](CC(C)C)NC(=O)[C@H](CCCNC(=N)N)NC(=O)[C@@H](N)CCCNC(=N)N)[C@@H](C)O)C(=O)N[C@@H](CCCCN)C(N)=O (H-RRLRWWTRWRLK-NH2)	≥ 70%	> 128 µM	45.2
